The values that follow are results of earlier work, collected in US9399652B2, “Synthetic route to pactamycin and pactamycin analogs” (The University of North Carolina at Chapel Hill, priority 2013, dated 2016).

For the data set the following is noted: literature value (ref. 11); cell line not given; read-out: cytotoxicity (IC50).

In the case of `CC(=O)c1cccc(N[C@H]2[C@H](N)[C@@](NC(=O)N(C)C)([C@H](C)O)[C@@](C)(O)[C@@]2(O)COC(=O)c2c(C)cccc2O)c1` [Pactamycin], the IC50 was 95 nM.

In general, IC50 refers to the concentration needed to halve the response being measured.
